Results published in US9745317B2, “Heterocyclic compounds and their use as dopamine D1 ligands” (PFIZER INC., priority 2014, dated 2017).
Where a name gives a salt, the structure may show the parent alone. Read-outs that look alike come from different tables or passages of the source.

Molecular target: Human D1 Receptor (Homo sapiens (Human), UniProt P21728)
Assay: Human D1 receptor binding assay ([^3H]-SCH23390 competition binding)
Conditions: read-out: Human D1 Receptor Binding, Ki (nM), Geometric mean of 2-4 determinations (unless otherwise indicated)
Protocol: The affinity of the compounds described herein was determined by competition binding assays similar to those described in Ryman-Rasmussen et al., “Differential activation of adenylate cyclase and receptor internalization by novel dopamine D1 receptor agonists”, Molecular Pharmacology 68(4):1039-1048 (2005).
D1 binding assays were performed using over-expressing LTK human cell lines. […] These ligand and tissue concentrations were used in time course studies to determine linearity and equilibrium conditions for binding. Binding was at equilibrium with the specified amount of tissue in 30 minutes at 37° C. […] The pellet was resuspended in assay buffer [50 mM Tris (pH 7.4@ RT) containing 4 mM MgSO4 and 0.5 mM EDTA]. […] Non-specific binding was determined by radioligand binding in the presence of a saturating concentration of (+)-Butaclamol (10 μM), a D1 antagonist. After a 30 minute incubation period at 37° C., assay samples were rapidly filtered through Unifilter-96 GF/B PEI-coated filter plates and rinsed with 50 mM Tris buffer (pH 7.4 at 4° C.). […] The IC50 value (concentration at which 50% inhibition of specific binding occurs) was calculated by linear regression of the concentration-response data in Microsoft Excel. Ki values were calculated according to the Cheng-Prusoff equation: […]

[1] = over-expressing LTK human cell lines, 0.5 nM [^3H]-SCH23390, 30 min at 37° C., footnote a = single determination, b = geometric mean of ≧5 determinations

Sequence of Human D1 Receptor (P21728 whole entry): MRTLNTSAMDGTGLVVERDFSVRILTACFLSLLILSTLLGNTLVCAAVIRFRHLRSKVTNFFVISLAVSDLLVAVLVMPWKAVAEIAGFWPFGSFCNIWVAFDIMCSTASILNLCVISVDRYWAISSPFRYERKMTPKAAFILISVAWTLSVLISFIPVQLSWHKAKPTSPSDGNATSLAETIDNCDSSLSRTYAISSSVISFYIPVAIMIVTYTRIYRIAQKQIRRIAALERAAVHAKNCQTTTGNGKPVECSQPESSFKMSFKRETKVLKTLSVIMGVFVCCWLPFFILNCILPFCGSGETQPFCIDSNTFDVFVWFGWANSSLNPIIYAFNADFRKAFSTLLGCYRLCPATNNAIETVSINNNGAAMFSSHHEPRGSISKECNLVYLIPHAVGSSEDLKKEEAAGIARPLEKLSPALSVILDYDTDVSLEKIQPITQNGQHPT

Structure (SMILES)	Ki [1] [nM]	Ki [nM]
Cc1cc(Oc2nccc3c2CCN3)ccc1-c1c(C)n[nH]c(=O)c1C (single isomer, unassigned; ent-1) [Example 9, 5-[4-(2,3-Dihydro-1H-pyrrolo[3,2-c]pyridin-4-yloxy)-2-methylphenyl]-4,6-dimethylpyridazin-3(2H)-one, ENT-1]	35.6	–
Cc1cc(Oc2nccc3c2CCN3)ccc1-c1c(C)n[nH]c(=O)c1C (single isomer, unassigned; ent-2) [Example 10, 5-[4-(2,3-Dihydro-1H-pyrrolo[3,2-c]pyridin-4-yloxy)-2-methylphenyl]-4,6-dimethylpyridazin-3(2H)-one, ENT-2]	50.5	–
Cc1cc(Oc2nccc3c2CCO3)ccc1-c1c(C)ncnc1C [Example 1, 4-[4-(4,6-Dimethylpyrimidin-5-yl)-3-methylphenoxy]-2,3-dihydrofuro[3,2-c]pyridine]	76.8	–
Cc1cc(Oc2nccc3c2CCN3)ccc1-c1c(C)ncnc1C [Example 2, 4-[4-(4,6-Dimethylpyrimidin-5-yl)-3-methylphenoxy]-2,3-dihydro-1H-pyrrolo[3,2-c]pyridine]	–	78.1
Cc1n[nH]c(=O)c(C)c1-c1ccc(Oc2nccc3c2CCN3)cc1 [Example 4, 5-[4-(2,3-Dihydro-1H-pyrrolo[3,2-c]pyridin-4-yloxy)phenyl]-4,6-dimethylpyridazin-3(2H)-one]	–	14
Cc1cc(Oc2nccc3c2CCO3)ccc1-c1c(C)n[nH]c(=O)c1C [Example 6, (+)-5-[4-(2,3-Dihydrofuro[3,2-c]pyridin-4-yloxy)-2-methylphenyl]-4,6-dimethylpyridazin-3(2H)-one]	12.6	–
Cc1cc(Oc2nccc3c2CCO3)ccc1-c1c(C)n[nH]c(=O)c1C [Example 7, (−)-5-[4-(2,3-Dihydrofuro[3,2-c]pyridin-4-yloxy)-2-methylphenyl]-4,6-dimethylpyridazin-3(2H)-one]	12.7	–
Cc1cc(Oc2nccc3c2CCN3)ccc1-c1c(C)n[nH]c(=O)c1C [Example 8, 5-[4-(2,3-Dihydro-1H-pyrrolo[3,2-c]pyridin-4-yloxy)-2-methylphenyl]-4,6-dimethylpyridazin-3(2H)-one]	8.4	–
Cc1c(-c2ccc(Oc3nccc4c3CCN4)cc2)n(C)c(=O)[nH]c1=O [Example 12, 6-[4-(2,3-Dihydro-1H-pyrrolo[3,2-c]pyridin-4-yloxy)phenyl]-1,5-dimethylpyrimidine-2,4(1H,3H)-dione]	11.1	–
Cc1c(-c2ccc(Oc3nccc4c3CCO4)cc2)n(C)c(=O)[nH]c1=O [Example 13, 6-[4-(2,3-Dihydrofuro[3,2-c]pyridin-4-yloxy)phenyl]-1,5-dimethylpyrimidine-2,4(1H,3H)-dione, trifluoroacetate salt]	46.1	–
Cc1cc(Oc2nccc3c2CCCO3)ccc1-c1c(C)n[nH]c(=O)c1C [Example 14, 5-[4-(3,4-Dihydro-2H-pyrano[3,2-c]pyridin-5-yloxy)-2-methylphenyl]-4,6-dimethylpyridazin-3(2H)-one]	–	70.3
Cc1cc(Oc2nccc3c2CCCN3)ccc1-c1c(C)n[nH]c(=O)c1C [Example 15, 4,6-Dimethyl-5-[2-methyl-4-(1,2,3,4-tetrahydro-1,6-naphthyridin-5-yloxy)phenyl]pyridazin-3(2H)-one]	–	18.1
Cc1cc(Oc2nccc3c2C(O)CO3)ccc1-c1c(C)ncnc1C (stereo not drawn) [Example 17, 4-[4-(4,6-Dimethylpyrimidin-5-yl)-3-methylphenoxy]-2,3-dihydrofuro[3,2-c]pyridin-3-ol]	–	28.9
Cc1cc(Oc2ncnc3c2CCN3)ccc1-c1c(C)ncnc1C [Example 19, 4-[4-(4,6-dimethylpyrimidin-5-yl)-3-methylphenoxy]-6,7-dihydro-5H-pyrrolo[2,3-d]pyrimidine]	156	–
Cc1cc(Oc2ncnc3c2CCC3)ccc1-c1c(C)ncnc1C [Example 20, 4-[4-(4,6-dimethylpyrimidin-5-yl)-3-methylphenoxy]-6,7-dihydro-5H-cyclopenta[d]pyrimidine]	446	–
Cc1n[nH]c(=O)c(C)c1-c1ccc(Oc2nccc3c2CCO3)cc1C#N [Example 26, 5-(2,3-dihydrofuro[3,2-c]pyridin-4-yloxy)-2-(3,5-dimethyl-6-oxo-1,6-dihydropyridazin-4-yl)benzonitrile]	162	–
Cc1c(-c2ccc(Oc3ncnc4c3CCN4)cc2)n(C)c(=O)[nH]c1=O [Example 27, 6-[4-(6,7-dihydro-5H-pyrrolo[2,3-d]pyrimidin-4-yloxy)phenyl]-1,5-dimethylpyrimidine-2,4(1H,3H)-dione]	44.4	–
Cc1c(-c2ccc(Oc3ncnc4c3CCC4)cc2)n(C)c(=O)[nH]c1=O [Example 28, 6-[4-(6,7-dihydro-5H-cyclopenta[d]pyrimidin-4-yloxy)phenyl]-1,5-dimethylpyrimidine-2,4(1H,3H)-dione]	202	–

Next, values leading:

Ki [1] [nM]	Ki [nM]	Structure (SMILES)
202	–	Cc1cc(Oc2nccc3c2CCO3)ccc1-c1c(C)ncc(=O)n1C (single isomer, unassigned) [Example 22, (−)-6-[4-(2,3-dihydrofuro[3,2-c]pyridin-4-yloxy)-2-methylphenyl]-1,5-dimethylpyrazin-2(1H)-one]
706	–	Cc1cc(Oc2nccc3c2CCO3)ccc1-c1c(C)ncc(=O)n1C (single isomer, unassigned) [Example 23, (+)-6-[4-(2,3-dihydrofuro[3,2-c]pyridin-4-yloxy)-2-methylphenyl]-1,5-dimethylpyrazin-2(1H)-one]
201	–	Cc1cc(Oc2nccc3c2CCN3)ccc1-c1c(C)ncc(=O)n1C (single isomer, unassigned) [Example 24, (+)-6-[4-(2,3-dihydro-1H-pyrrolo[3,2-c]pyridin-4-yloxy)-2-methylphenyl]-1,5-dimethylpyrazin-2(1H)-one]
75.8	–	Cc1cc(Oc2nccc3c2CCN3)ccc1-c1c(C)ncc(=O)n1C (single isomer, unassigned) [Example 25, (−)-6-[4-(2,3-dihydro-1H-pyrrolo[3,2-c]pyridin-4-yloxy)-2-methylphenyl]-1,5-dimethylpyrazin-2(1H)-one]
14	–	Cc1cc(Oc2nccc3c2CCO3)ccc1-c1c(C)n[nH]c(=O)c1C [Example 5, 5-[4-(2,3-Dihydrofuro[3,2-c]pyridin-4-yloxy)-2-methylphenyl]-4,6-dimethylpyridazin-3(2H)-one]
–	60.4	Cc1n[nH]c(=O)c(C)c1-c1ccc(Oc2ncnc3c2CCN3)cc1 [Example 11, 5-[4-(6,7-Dihydro-5H-pyrrolo[2,3-d]pyrimidin-4-yloxy)phenyl]-4,6-dimethylpyridazin-3(2H)-one]
4.8	–	Cc1cc(Oc2nccc3c2C(O)CO3)ccc1-c1c(C)n[nH]c(=O)c1C (stereo not drawn) [Example 16, 5-{4-[(3-Hydroxy-2,3-dihydrofuro[3,2-c]pyridin-4-yl)oxy]-2-methylphenyl}-4,6-dimethylpyridazin-3(2H)-one]
52.1	–	Cc1cc(Oc2nccc3c2CCO3)ccc1-c1c(C)ncc2nccn12 [Example 18, 5-[4-(2,3-dihydrofuro[3,2-c]pyridin-4-yloxy)-2-methylphenyl]-6-methylimidazo[1,2-a]pyrazine]
82.5	–	Cc1cc(Oc2nccc3c2CCO3)ccc1-c1c(C)ncc(=O)n1C [Example 21, 6-[4-(2,3-dihydrofuro[3,2-c]pyridin-4-yloxy)-2-methylphenyl]-1,5-dimethylpyrazin-2(1H)-one]
